The text below walks through data of patent US6890950B2, “Lapachone delivery systems, compositions and uses related thereto” (priority 2002, dated 2005).

“And” between values parts separate entries of the source, which are not always exact repeats. Equal entries are not always repeated.

The subject of one data set is DU-145. Briefly: TUNEL apoptosis assay. It counts as cell-based, human. The settings on record: 10 μM, 4h, TUNEL 48h.
The next data set has as its system LNCaP. As to the kind of experiment: TUNEL apoptosis assay. It counts as cell-based, human. To be noted: 10 μM, 4h.
A further data set concerns PC-3. As to the kind of experiment: TUNEL apoptosis assay. The class given is cell-based, human. The settings on record: 10 μM, 4h, TUNEL 48h.
Another data set relates to A549 NSCLC cells. Briefly: survival and apoptosis (PARP cleavage) of NSCLC cells. The class given is cell-based, human. The settings on record: 50 μM, 4 h.
Data set [1] deals with NQO1-containing LNCaP clones. As to the kind of experiment: colony forming ability assays. The class given is cell-based, human. To be noted: 4-h pulses. On the procedure:
FIG. 14. […] Colony forming ability assays (CFAs) were performed three times, each in triplicate.
LNCaP cells were transfected with either pcDNA3 empty vector or pcDNA3 containing full-length NQO1 cDNA.

Data set [2] in a line: association constant (Kc) from phase solubility diagrams. It counts as physicochemical. To be noted: for association constant Kc (phase solubility): inclusion complex with β-lap, PBS, 25° C., 1:1. As to the method:
Solubility studies were performed by adding excess amount of β-lap to a series of PBS buffer that contain different concentrations of each CD molecule ranging from zero to its solubility limit (see Table 1 for the solubility limit of each CD molecule). A schematic diagram of the intermolecular interactions and their effect on solubility is provided as FIG. 1. The suspensions were stirred at 25° C. until dissolution equilibrium was reached. Then aliquots were withdrawn, filtered (Nylon syringe filter 0.2 μm pore size from Fisher Scientific (Pittsburg, Pa.)) and analyzed for β-lap concentrations by UV-V is spectrophotometry (λmax=257.2 nm, ε=109.6 ml/(mg·cm)). Phase solubility diagram for each CD was obtained by plotting the β-lap solubility at dissolution equilibrium as a function of the CD concentration. The association constant (Kc) [formula] for the complex formation was calculated based on Equation 1 assuming a 1:1 ratio of complex formation (T. Higuchi and K. A. Connors. Adv Anal Chem Instrum. 4:117-212 (1965)). ^1H NMR Study of CD.β-lap Inclusion Complexes

Data set [3] in a line: phase solubility studies of β-lap with cyclodextrins. It counts as physicochemical. As to the method:
Solubility studies were performed by adding excess amount of β-lap to a series of PBS buffer that contain different concentrations of each CD molecule ranging from zero to its solubility limit (see Table 1 for the solubility limit of each CD molecule). A schematic diagram of the intermolecular interactions and their effect on solubility is provided as FIG. 1. The suspensions were stirred at 25° C. until dissolution equilibrium was reached. […] Phase solubility diagram for each CD was obtained by plotting the β-lap solubility at dissolution equilibrium as a function of the CD concentration.

From the text for A549 NSCLC cells: NQO1-dependent apoptosis of A549 or CC-10 NSCLC cells by β-lap.

With `CC[C@@]1(O)C(=O)OCc2c1cc1n(c2=O)Cc2cc3ccccc3nc2-1` [Camptothecin, camptothecin], the “Apoptosis (%) After Drug Treatment” value in the data set with DU-145 (DU-145 + DC (50 μM dicoumarol)) is 43 ± 12%; in the data set with DU-145 (DU-145 + DVED), 10 ± 5%; in the data set on DU-145 (DU-145), 30 ± 06%; with LNCaP (LNCaP + DC (50 μM dicoumarol), TUNEL 48h), 33 ± 9%; with LNCaP (LNCaP + DVED, TUNEL 48h) it was 10 ± 3%; in the data set with LNCaP (LNCaP, TUNEL 48h post-treatment), 30 ± 5%. Moreover, the figures for the “Apoptosis (%) After Drug Treatment” value in the data set with PC-3 (PC-3 + DC (50 μM dicoumarol)), with PC-3 (PC-3 + DVED) and with PC-3 (PC-3) were 22 ± 7%, 6 ± 5% and 23 ± 3%, respectively.

In the case of `O=c1oc2ccccc2c(O)c1Cc1c(O)c2ccccc2oc1=O` [dicoumarol], the “effect on cell growth (survival), alone” value in the data set on A549 NSCLC cells was “no effect”.

Turning to `CC1=CC(=O)c2ccccc2C1=O` [menadione], the “sensitivity compared to NQO1-deficient LN-pcDNA3 vector alone cells” value in data set [1] is listed as “resistant”.

With `OC[C@H]1O[C@@H]2O[C@H]3[C@H](O)[C@@H](O)[C@@H](O[C@H]4[C@H](O)[C@@H](O)[C@@H](O[C@H]5[C@H](O)[C@@H](O)[C@@H](O[C@H]6[C@H](O)[C@@H](O)[C@@H](O[C@H]7[C@H](O)[C@@H](O)[C@@H](O[C@H]1[C@H](O)[C@H]2O)O[C@@H]7CO)O[C@@H]6CO)O[C@@H]5CO)O[C@@H]4CO)O[C@@H]3CO` [α-CD], the “association constant Kc (phase solubility)” value in data set [2] is 20.0 ± 0.7 M⁻¹ and 20 M⁻¹.

In the case of `OC[C@H]1O[C@@H]2O[C@H]3[C@H](O)[C@@H](O)[C@@H](O[C@H]4[C@H](O)[C@@H](O)[C@@H](O[C@H]5[C@H](O)[C@@H](O)[C@@H](O[C@H]6[C@H](O)[C@@H](O)[C@@H](O[C@H]7[C@H](O)[C@@H](O)[C@@H](O[C@H]8[C@H](O)[C@@H](O)[C@@H](O[C@H]9[C@H](O)[C@@H](O)[C@@H](O[C@H]1[C@H](O)[C@H]2O)O[C@@H]9CO)O[C@@H]8CO)O[C@@H]7CO)O[C@@H]6CO)O[C@@H]5CO)O[C@@H]4CO)O[C@@H]3CO` [γ-CD], in data set [2], the “Kc increase over α-CD (factor)” value is reported as 8; the “association constant Kc (phase solubility)” value is 160 ± 5 M⁻¹ and 160 M⁻¹.

Take hydroxypropyl β-cyclodextrin [HPβ-CD]: the “solubility (limit) of HPβ-CD” value in data set [3] was 360 mM.
